Source: US9128097B2, “Method and kit for assessing viable cells” (ChemoMetec A/S, priority 2008, dated 2015)

Legend:
Type in all cases: cell-based
S. cerevisiae = assay: DACM/PI staining of yeast, fluorescence microscopy; settings: 8 μg/ml DACM, no incubation
Procedure: (§1) Materials and Methods. S. pombe strain Eg328, h^90 smt-0 ura4-D18, (ATCC 90720; Styrkarsdottir U et al. Curr. Genet. 23: 184-186, 1993) was grown in a rotary shaker at 29° C. to a density of 1×10^7 cells/ml in EMM minimal medium (Moreno et al., Methods Enzym. 194: 795-823, 1991) supplemented with 10 mM of L-uridine (Sigma, U3750). S. cerevisiae wild strain was cultivated in YPD medium (Qbiogene, #4001-032) at 29° C. to a density of 5×10^7 cells/ml. S. pombe and S. cerevisiae cells were directly stained with 8 μg/ml DACM (N-(7-dimethylamino-4-methyl-3-coumarinyl)-maleimide, WAKO Pure Chemical Industries, CAS no. 55145-14-7 dissolved in DMSO) and 10 μg/ml propidium iodide (Applichem, #A2261.9010) prior to mounting on a microscope slide. Note: after addition of DACM and PI the cells were immediately analysed for fluorescence (no incubation). Olympus IX50 and NucleoCounter® NC3000™ was used for microscopy, and images were captured using a Lumenera CCD camera and in-house developed software. Propidium iodide and DCAM fluorescence were detected using the U-MWG2 and U-MNUA2 filter cubes of the Olympus microscope and filterset 5 and 1 of the NucleoCounter® NC-3000™.

S. pombe = assay: DACM/PI staining of yeast, fluorescence microscopy; settings: 8 μg/ml DACM, no incubation
Procedure: as §1

Jurkat (A3) cells [1] = assay: DACM staining of exponentially growing versus starved Jurkat cells; settings: viable cells (PI positive gated out); 2 days versus 10 days incubation
Procedure: Materials and Methods. Jurkat (A3) cells were grown in T flasks at 37° C. in a humidified air atmosphere with 5% CO2 in RPMI (Invitrogen, #61870) supplemented with 10% heat-inactivated fetal bovine serum (Invitrogen, #10108-165). To investigate the effect of cell starvation on DACM staining, exponentially proliferating cells from a newly split culture (2 days incubation) were investigated along with cells from a stationary culture (10 days incubation). 1.8 mL proliferating newly split Jurkat cells (cell density 3×10^5, 98% viable) were spun down and resuspended in 95 μL RPMI media and added 5 μL of a mixture of DACM (N-(7-dimethylamino-4-methyl-3-coumarinyl)-maleimide, WAKO Pure Chemical Industries, CAS no. 55145-14-7, 400 μg DACM pr. mL), acridine orange (1.2 μg/mL) and propidium iodide (500 μg/mL) and mixed by pipetting. Immediately after staining cells were loaded into a chamber slide. Images were captured using an in-house developed fluorescence microscope system with a Lumenera CCD camera (2× magnification) and were analysed using in-house developed software.

Jurkat (A3) cells [2] = assay: DACM / annexin V AF594 / SYTOX green staining of nocodazole treated Jurkat cells
Procedure: Materials and Methods. Jurkat (A3) cells were grown in T flasks at 37° C. in a humidified air atmosphere with 5% CO2 in RPMI (Invitrogen, #61870) supplemented with 10% heat-inactivated fetal bovine serum (Invitrogen, #10108-165). In order of investigating the effect of an apoptosis-inducing drug on DACM staining, Jurkat cells were treated with nocodazole (0.5 μM) for 16 hours. Nocodazole treated and untreated control cells were harvested washed and stained with annexin V Alexa Fluor 594 (Invitrogen, #A13203) according to manufacturer's instructions. Then cells were stained with DACM (20 μg/mL) (N-(7-dimethylamino-4-methyl-3-coumarinyl)-maleimide, WAKO Pure Chemical Industries, CAS no. 55145-14-7) and the nonviable stain SYTOX green (0.3 μM) (Invitrogen, #S7020). Immediately after staining with DACM cells were loaded into a chamber slide. The cells were investigated using an Olympus IX50 fluorescence microscope, and images (40× magnification) of the Annexin V Alexa Fluor 594, DACM and SYTOX green stained cells were captured using a Lumenera CCD camera combined with the following filter cubes (Olympus); U-MWG2 (green long pass: 510-550 nm), U-MNUA2 (UV band pass, 330-385 nm) and U-MNIB3 (blue band pass: 470-495 nm). Cells were also investigated using an in-house developed fluorescence microscope system with 2× magnification.

Jurkat (JM) cells = assay: Staining of proliferating Jurkat cells with labelling agent and propidium iodide, fluorescence microscopy; settings: 10 μL agent (100 μg pr. mL DMSO) added to 90 μL cells, only exception PI positive cells
Procedure: (§2) Materials and Methods. Jurkat (JM) cells were grown at 37° C. in a humidified air atmosphere with 5% CO2 in RPMI (Invitrogen, #61870) supplemented with 10% heat-inactivated fetal bovine serum (Invitrogen, #10108-165). 90 μL proliferating Jurkat cells (cell density 1.2×10^6, 99% viable determined using the NC-100 NucleoCounter system following the manufacturer's (ChemoMetec A/S) protocol) were added 10 μL NAM (N-(9-acridinyl)maleimide, Sigma, #01665, CAS no. 49759-20-8) dissolved in DMSO (100 μg NAM pr. mL DMSO) and mixed by pipetting. Cells were loaded into a NucleoCassette, containing the DNA stain propidium iodide (PI). The cells were investigated using an Olympus IX50 fluorescence microscope, and images were captured using a Lumenera CCD camera and in-house developed software. PI and NAM fluorescence were detected using, respectively, U-MWG2 (green long pass: 510-550 nm) and U-MNUA2 (UV band pass, 330-385 nm) filter cubes (Olympus).
as §2, with “1.0×10^6,” for “1.2×10^6,”, “(ChemoMetec)” for “(ChemoMetec A/S)”, “CPM (7-diethylamino-3-[4′-maleimidylphenyl]-4-methylcoumarin, Chemodex Ltd.,” for “NAM (N-(9-acridinyl)maleimide, Sigma, #01665,”, “76877-33-3)” for “49759-20-8)”, “CPM” for “NAM”
as §2, with “1.1×10^6, 98%” for “1.2×10^6, 99%”, “(ChemoMetec)” for “(ChemoMetec A/S)”, “PM (N-(1-Pyrenyl)maleimide, Sigma P7908” for “NAM (N-(9-acridinyl)maleimide, Sigma, #01665,”, “42189-56-0)” for “49759-20-8)”, “PM” for “NAM”, “Cells were loaded into a NucleoCassette, containing the DNA stain propidium iodide (PI).” left out
Materials and Methods. […] 90 μL proliferating Jurkat cells (cell density 1.1×10^6, 98% viable determined using the NC-100 NucleoCounter system following the manufacturer's (ChemoMetec) protocol) were added 10 μL CPI (7-diethylamino-3-((4′-(iodoacetyl)amino)phenyl)-4-methylcoumarin, Sigma 78264 CAS no. 76877-34-4) dissolved in DMSO (100 μg CPI pr. mL DMSO) and mixed by pipetting. […] The cells were investigated using an Olympus IX50 fluorescence microscope, and images were captured using a Lumenera CCD camera and in-house developed software. PI and CPI fluorescence were detected using, respectively, U-MWG2 (green long pass: 510-550 nm) and U-MNUA2 (UV band pass, 330-385 nm) filter cubes (Olympus). […]

Jurkat cells = assay: JC-1 mitochondrial potential detection apoptosis assay; settings: nocodazole treated Jurkat cells
Description: FIG. 22 The effect of the apoptotic drug nocodazole on the fluorescence intensity of stained Jurkat cells. 22A+22B) Fluorescence intensity of DACM stained untreated (22A) or nocodazole treated (22B) Jurkat cells. […] 22C+22D) Red vs. green fluorescence of JC-1 stained untreated (22C) and nocodazole treated (22D) Jurkat cells. The JC-1 stain is used for detecting apoptosis. JC-1 form red fluorescing aggregates in the mitochondria of healthy, non-apoptotic cells. In apoptotic cells JC-1 appears in its green monomeric, reduced form. […] This is in accordance with the results obtained using DACM to measure the thiol level; treatment with nocodazole causes a decrease in the fluorescence intensity of a subpopulation of cells.

SMILES	staining of non-viable PI positive cells (S. cerevisiae)	staining of viable PI negative cells (S. cerevisiae)	staining of non-viable PI positive cells (S. pombe)	staining of viable PI negative cells (S. pombe)	DACM fluorescence intensity, healthy versus starved cells (Jurkat (A3) cells [1])	DACM fluorescence intensity of viable, non-apoptotic cells (Jurkat (A3) cells [2]; DACM 20 μg/mL)	DACM fluorescence intensity of nonviable cells (Jurkat (A3) cells [2]; SYTOX green positive cells, DACM 20 μg/mL)	DACM fluorescence intensity of apoptotic cells (Jurkat (A3) cells [2]; annexin V positive cells, DACM 20 μg/mL)	staining of cells (UV filter) versus PI positive cells (Jurkat (JM) cells)	overall DACM fluorescence intensity (thiol level) of treated cells versus untreated (Jurkat (A3) cells [2]; nocodazole 0.5 μM for 16 hours)	induction of apoptosis (mitochondrial depolarisation, JC-1 red/green fluorescence) (Jurkat cells)
Cc1c(N2C(=O)C=CC2=O)c(=O)oc2cc(N(C)C)ccc12 [DACM, N-(7-dimethylamino-4-methyl-3-coumarinyl)-maleimide]	stain very weakly with DACM	stain brightly with DACM	stain very weakly with DACM	stain brightly with DACM	higher for healthy (exponential growing) Jurkat cells than the starved Jurkat cells	highest fluorescence intensity	low fluorescence intensity	low fluorescence intensity	nearly all cells were stained by DACM		
COC(=O)Nc1nc2ccc(C(=O)c3cccs3)cc2[nH]1 [nocodazole]										lower than the overall fluorescence intensity of untreated Jurkat cells	induces apoptosis (measured as depolarisation) in a cell subpopulation
